Data as given in US5310920A, “N-vinylimidazolidine derivatives insecticides containing same as an effective ingredient” (priority 1991, dated 1994).
≈ marks a conversion by molar mass, not a printed value. Like-named read-outs stand apart in the source and are kept apart here.

Legend:
[1] = system: Laodelphax striatellus Fallen - smaller brown planthopper; assay: Test Example 1: Effect on smaller brown planthopper, mortality; assay type: in vivo; conditions: 5 ppm, 48 hours, 25° C., ten female adults, rice seedlings
Protocol: Effect on Laodelphax sriatellus Fallen--smaller brown planthopper
(§1) The emulsion prepared in Formulation Example 1 was diluted to a predetermined concentration and 2 ml of the diluted emulsion was applied over a bundle of several rice seedlings (about third leaf stage). After drying in air, the treated seedlings were covered with a metal gauze cylinder, in which ten female adults of the smaller brown planthopper were released, followed by placing in a temperature controlled room at 25° C. After 48 hours, the mortality was checked.

[2] = system: resistant strain of Nephotettix cincticeptus Uhler - resistant green rice leafhopper; assay: Test Example 2: Effect on resistant green rice leafhopper, mortality; assay type: in vivo; conditions: Nephotettix cincticeps
Protocol: (§2) Effect on resistant strain of Nephotettix cincticeptus Uhler--resistant green rice leafhopper
as §1, with “and 3” for “and 2”, “the leafhopper that is resistant to organophosphate and carbamate insecticides” for “the smaller brown planthopper”

[3] = system: Myzus persicae Suizer - green peach aphid; assay: Test Example 7: Effect on green peach aphid, density of living insects; assay type: in vivo; conditions: after three days; 100 × (living insects after / before treatment)
From the text: Effect on Myzus persicae Suizer--green peach aphid
After the application, the seedlings were placed in the greenhouse and, after three days, the number of the aphids was checked, from which the density of the living insects was obtained. The tests were repeated two times.
(§3) Density of Living Insects = 100 × (number of living insects after
(§4) treatment/number of living insects before treatment)

[4] = system: Laodelphax striatellus Fallen - smaller brown planthopper; assay: Test Example 5: Effect on smaller brown planthopper, LC50; assay type: in vivo; conditions: 48 hours, 25° C.
Protocol: Effect on Laodelphax striatellus Fallen--smaller brown planthopper
(§5) The emulsion prepared in Formulation Example 1 was diluted to predetermined concentrations, and 2 ml of each diluted emulsion was applied over a bundle of several rice seedlings (about third leaf stage). After drying in air, the treated seedlings were covered with a metal gauze cylinder, in which ten female adults of the smaller brown planthopper were released, followed by placing in a temperature controlled room at 25° C. After 48 hours, the mortality was checked, from which the medium-lethal concentration (LCO) was obtained.

[5] = system: resistant strain of Nephotettix cincticeptus Uhler - resistant green rice leafhopper; assay: Test Example 6: Effect on resistant green rice leafhopper, LC50; assay type: in vivo; conditions: Nephotettix cincticeps, 48 h
Protocol: as §2
as §5, with “leafhopper that is resistant to organophosphate and carbamate insecticides” for “smaller brown planthopper”, “50 %-lethal” for “medium-lethal”, “(LC50)” for “(LCO)”

[6] = Test Example 8: Acute Toxicity Test to Mice; conditions: mouse, in vivo, po; forced peroral administration, corn oil, 6-week mice, up to 14 days
Protocol: Acute Toxicity Test to Mice
The compound of the invention having a predetermined concentration was dissolved in corn oil and applied to 6-week mice by forced peroral administration. Up to 14 days from the administration, the number of the died mice was counted periodically, from which the 50 %-lethal […] (LD50) was obtained. One group for the test comprised ten mice.

[7] = system: Myzus persicae Suizer - green peach aphid; assay: Test Example 4: Effect on green peach aphid, density of living insects; assay type: in vivo; conditions: 50 ppm, after three days; 100 × (living insects after / before treatment)
Protocol: Effect on Myzus persicae Suizer green peach aphid
20 ml of a dilution of the emulsion prepared in Formulation Example 1 was sprayed over potted eggplant seedlings (fourth or fifth leaf stage), as having been grown in a greenhouse, on which the green peach aphids had been parasitic. After the application, the seedlings were placed in the greenhouse and, after three days, the number of the aphids was checked.
as §3, §4

[8] = system: Callosobruchus chinensis Linne - Azuki bean weevil; assay: whole plant or invertebrate; assay type: in vivo; conditions: 48 h
Protocol: Effect on Callosobruchus chinensis Linne--Azuki bean weevil:
An acetone solution of the compound of the invention was added to a Petri dish with a diameter of 9 cm, followed by removal of the acetone by evaporation. Twenty female adults of the Azuki bean weevil, which were 2 to 3 days after emergence were placed in the dish at 25° C. After 48 hours, the mortality was checked.

[9] = 3 ppm, 48 hours, 25° C., ten female adults resistant to organophosphate and carbamate insecticides, read-out: Mortality (%)

SMILES: O=[N+]([O-])N=C1N(C=CCc2ccccc2)CCN1Cc1ccc(Cl)nc1 [No. 40]
- Mortality (%) [1]: 100%
- mortality at 3 ppm [2, 9]: 100%

SMILES: C=CN1CCN(Cc2ccc(Cl)nc2)C1=N[N+](=O)[O-] [No. 1]
- Mortality (%) [1]: 100%
- mortality at 3 ppm [2, 9]: 100%

SMILES: O=[N+]([O-])N=C1N(C=Cc2ccccc2)CCN1Cc1ccc(Cl)nc1 [No. 2]
- Density of Living Insects [3]: 20
- LC50 [4]: 3 ppm
- LC50 [5]: 1.5 µg/mL (≈ 4.19 µM)
- mortality at 3 ppm ([2]; 48 h): 100%

SMILES: CC(C)C=CN1CCN(Cc2ccc(Cl)nc2)C1=N[N+](=O)[O-] [No. 27]
- Density of Living Insects [3]: 0
- LD50 at 336 h [6]: 1000 mg/kg
- LC50 [4]: 1 ppm
- LC50 [5]: 0.3 µg/mL (≈ 0.927 µM)

SMILES: O=[N+]([O-])N=C1N(C=Cc2ccc3c(c2)OCO3)CCN1Cc1ccc(Cl)nc1 [No. 11]
- Mortality (%) [1]: 100%
- mortality at 3 ppm [2, 9]: 100%

SMILES: CCSC=CN1CCN(Cc2ccc(Cl)nc2)C1=N[N+](=O)[O-] [No. 42, 1-(2-chloropyridin-5-ylmethyl)-2-nitroimino-3-(2-ethylthiovinyl)imidazolidine]
- Mortality (%) [1]: 100%

SMILES: O=[N+]([O-])N=C1N(CCc2ccc(Cl)cc2)CCN1Cc1ccc(Cl)nc1 [Reference Chemical (1), 1(2-chloropyridin-5-ylmethyl)-2-nitroimino-3-{2-(4-chlorophenyl)ethyl}imiazolidine, reference compound]
- Mortality (%) [1]: 20%
- mortality at 3 ppm [2, 9]: 25%

SMILES: O=[N+]([O-])N=C1N(C=Cc2ccccc2Cl)CCN1Cc1ccc(Cl)nc1 [No. 12]
- Mortality (%) [1]: 100%

SMILES: COP(=O)(OC)OC=C(Cl)Cl [DDVP, 0,0-dimethyl-0-(2,2-dichlorovinyl)phosphate]
- Density of Living Insects [7]: 30

SMILES: C=CCN1CCN(Cc2ccc(Cl)nc2)C1=N[N+](=O)[O-] [Reference Chemical 1, 1(2-chloropyridin-5-ylmethyl)-2-nitroimino-3-allylimidazolidine, reference compound]
- Density of Living Insects [3]: 25
- LD50 at 336 h [6]: 100 to 200 mg/kg
- LC50 [4]: 10 ppm
- LC50 [5]: 3 µg/mL (≈ 10.1 µM)

SMILES: O=[N+]([O-])N=C1N(CCc2ccccc2)CCN1Cc1ccc(Cl)nc1 [Reference Chemical 2, 1(2-chloropyridin-5-ylmethyl)-2-nitroimino-3-(2-phenylethyl)imidazolidine, reference compound]
- Density of Living Insects [3]: 108
- LC50 [4]: 20 ppm
- LC50 [5]: 10 µg/mL (≈ 27.8 µM)

SMILES: COCN1CCN(Cc2ccc(Cl)nc2)C1=N[N+](=O)[O-] [Reference Chemical (2), 1(2-chloropyridin-5-ylmethyl)-2-nitroimino-3-methoxymethylimidazolidine, reference compound]
- Mortality (%) [1]: 20%
- mortality at 3 ppm [2, 9]: 30%

SMILES: O=C(NC=CN1CCN(Cc2ccc(Cl)nc2)C1=N[N+](=O)[O-])c1ccccc1 [No. 41]
- Mortality (%) [1]: 100%

SMILES: CCOP(=S)(OCC)Oc1cc(C)nc(C(C)C)n1 [Diazinone]
- mortality at 0.01 mg/dish, 0.01 mg/dish [8]: 58%

SMILES: CCCCC(=CN1CCN(Cc2ccc(Cl)nc2)C1=N[N+](=O)[O-])CC [No. 33, 1-(2-chloropyridin-5-ylmethyl)-2-nitroimino-3-(2-ethyl-1hexenyl)imidazlidine]
- Mortality (%) [1]: 100%
- mortality at 3 ppm [2, 9]: 100%

SMILES: COc1ccc(C=CN2CCN(Cc3ccc(Cl)nc3)C2=N[N+](=O)[O-])cc1 [No. 10]
- LD50 at 336 h [6]: > 5000 mg/kg
- mortality at 3 ppm [2, 9]: 100%

SMILES: O=[N+]([O-])N=C1N(C=Cc2ccc(Cl)cc2)CCN1Cc1ccc(Cl)nc1 [No. 14]
- Mortality (%) [1]: 100%
